# Laboratory results published in PubChem BioAssay (NCI).
#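 The compound was tested at five concentrations on cells cultured in 96-well plates, with a 48-hour exposure period. TGI: concentration producing complete growth inhibition.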
# Columns and labels:
# Test in all cases: NCI tumour cell line growth inhibition, 48 h
# CAKI-1 renal = system: CAKI-1 renal
# IGROV1 ovarian = system: IGROV1 ovarian
# MOLT-4 leukemia = system: MOLT-4 leukemia
# MDA-N = system: MDA-N
# OVCAR-4 ovarian = system: OVCAR-4 ovarian
# SK-OV-3 ovarian = system: SK-OV-3 ovarian
# SK-MEL-28 melanoma = system: SK-MEL-28 melanoma
# HCT-15 colon = system: HCT-15 colon
# UACC-62 melanoma = system: UACC-62 melanoma
# NCI-H226 lung = system: NCI-H226 lung
# LOX IMVI melanoma = system: LOX IMVI melanoma
# KM12 colon = system: KM12 colon
# SF-295 CNS = system: SF-295 CNS
# HCC-2998 colon = system: HCC-2998 colon
# NCI-H522 lung = system: NCI-H522 lung
# PC-3 prostate = system: PC-3 prostate
# DU-145 prostate = system: DU-145 prostate
# EKVX NSCLC = system: EKVX NSCLC
# SF-268 CNS = system: SF-268 CNS
# COLO 205 colon = system: COLO 205 colon
# SF-539 CNS = system: SF-539 CNS
# HOP-92 NSCLC = system: HOP-92 NSCLC
# HL-60(TB) leukemia = system: HL-60(TB) leukemia
# SK-MEL-2 melanoma = system: SK-MEL-2 melanoma
# ACHN renal = system: ACHN renal
# SW-620 colon = system: SW-620 colon
# SNB-19 CNS = system: SNB-19 CNS
# HS 578T breast = system: HS 578T breast
# BT-549 breast = system: BT-549 breast
# NCI-H23 lung = system: NCI-H23 lung
# RXF 393 renal = system: RXF 393 renal
# 786-0 renal = system: 786-0 renal
# TK-10 renal = system: TK-10 renal
# RPMI-8226 leukemia = system: RPMI-8226 leukemia
# K-562 leukemia = system: K-562 leukemia
# NCI-H460 lung = system: NCI-H460 lung
# SK-MEL-5 melanoma = system: SK-MEL-5 melanoma
# HCT-116 colon = system: HCT-116 colon
# OVCAR-5 ovarian = system: OVCAR-5 ovarian
# UO-31 renal = system: UO-31 renal
# HT29 colon = system: HT29 colon
# OVCAR-3 ovarian = system: OVCAR-3 ovarian
# CCRF-CEM leukemia = system: CCRF-CEM leukemia
# MDA-MB-435 = system: MDA-MB-435
# SNB-75 CNS = system: SNB-75 CNS
# SN12C renal = system: SN12C renal
# T-47D breast = system: T-47D breast
# UACC-257 melanoma = system: UACC-257 melanoma
# SR leukemia = system: SR leukemia
# HOP-62 NSCLC = system: HOP-62 NSCLC
# A549 NSCLC = system: A549 NSCLC
# M14 melanoma = system: M14 melanoma
# NCI/ADR-RES ovarian = system: NCI/ADR-RES ovarian
# MDA-MB-231 breast = system: MDA-MB-231 breast
# U251 CNS = system: U251 CNS
# A498 renal = system: A498 renal
# OVCAR-8 ovarian = system: OVCAR-8 ovarian
# MCF7 breast = system: MCF7 breast
# MALME-3M melanoma = system: MALME-3M melanoma
structure (smiles),measurement,setting,value
O=CNc1ccc2c(c1)C(=O)c1ccccc1-2,TGI,CAKI-1 renal,> 100 µM
same,TGI,IGROV1 ovarian,> 100 µM
same,TGI,MOLT-4 leukemia,> 100 µM
same,TGI,MDA-N,> 100 µM
same,TGI,OVCAR-4 ovarian,> 100 µM
same,TGI,SK-OV-3 ovarian,> 100 µM
same,TGI,SK-MEL-28 melanoma,> 100 µM
same,TGI,HCT-15 colon,> 100 µM
same,TGI,UACC-62 melanoma,> 100 µM
same,TGI,NCI-H226 lung,> 100 µM
same,TGI,LOX IMVI melanoma,> 100 µM
same,TGI,KM12 colon,> 100 µM
same,TGI,SF-295 CNS,> 100 µM
same,TGI,HCC-2998 colon,> 100 µM
same,TGI,NCI-H522 lung,> 100 µM
same,TGI,PC-3 prostate,> 100 µM
same,TGI,DU-145 prostate,> 100 µM
same,TGI,EKVX NSCLC,43.1 µM
same,TGI,SF-268 CNS,> 100 µM
same,TGI,COLO 205 colon,> 100 µM
same,TGI,SF-539 CNS,> 100 µM
same,TGI,HOP-92 NSCLC,> 100 µM
same,TGI,HL-60(TB) leukemia,> 100 µM
same,TGI,SK-MEL-2 melanoma,> 100 µM
same,TGI,ACHN renal,> 100 µM
same,TGI,SW-620 colon,> 100 µM
same,TGI,SNB-19 CNS,> 100 µM
same,TGI,HS 578T breast,> 100 µM
same,TGI,BT-549 breast,> 100 µM
same,TGI,NCI-H23 lung,> 100 µM
same,TGI,RXF 393 renal,> 100 µM
same,TGI,786-0 renal,> 100 µM
same,TGI,TK-10 renal,> 100 µM
same,TGI,RPMI-8226 leukemia,> 100 µM
same,TGI,K-562 leukemia,> 100 µM
same,TGI,NCI-H460 lung,> 100 µM
same,TGI,SK-MEL-5 melanoma,> 100 µM
same,TGI,HCT-116 colon,> 100 µM
same,TGI,OVCAR-5 ovarian,> 100 µM
same,TGI,UO-31 renal,> 100 µM
same,TGI,HT29 colon,> 100 µM
same,TGI,OVCAR-3 ovarian,> 100 µM
same,TGI,CCRF-CEM leukemia,> 100 µM
same,TGI,MDA-MB-435,> 100 µM
same,TGI,SNB-75 CNS,> 100 µM
same,TGI,SN12C renal,> 100 µM
same,TGI,T-47D breast,> 100 µM
same,TGI,UACC-257 melanoma,> 100 µM
same,TGI,SR leukemia,> 100 µM
same,TGI,HOP-62 NSCLC,> 100 µM
same,TGI,A549 NSCLC,> 100 µM
same,TGI,M14 melanoma,> 100 µM
same,TGI,NCI/ADR-RES ovarian,> 100 µM
same,TGI,MDA-MB-231 breast,> 100 µM
same,TGI,U251 CNS,> 100 µM
same,TGI,A498 renal,> 100 µM
same,TGI,OVCAR-8 ovarian,> 100 µM
same,TGI,MCF7 breast,> 100 µM
N#CC(NCc1cccc(CNC(C#N)c2ccccc2)c1)c1ccccc1 (stereo unspecified),TGI,CAKI-1 renal,> 100 µM
same,TGI,IGROV1 ovarian,41.8 µM
same,TGI,MOLT-4 leukemia,39 µM
same,TGI,MDA-N,> 100 µM
same,TGI,OVCAR-4 ovarian,> 100 µM
same,TGI,SK-OV-3 ovarian,> 100 µM
same,TGI,SK-MEL-28 melanoma,33.8 µM
same,TGI,HCT-15 colon,66.1 µM
same,TGI,UACC-62 melanoma,> 100 µM
same,TGI,NCI-H226 lung,> 100 µM
same,TGI,LOX IMVI melanoma,28.9 µM
same,TGI,KM12 colon,56.6 µM
same,TGI,SF-295 CNS,> 100 µM
same,TGI,HCC-2998 colon,28.1 µM
same,TGI,NCI-H522 lung,> 100 µM
same,TGI,PC-3 prostate,> 100 µM
same,TGI,DU-145 prostate,> 100 µM
same,TGI,EKVX NSCLC,> 100 µM
same,TGI,SF-268 CNS,> 100 µM
same,TGI,COLO 205 colon,42.6 µM
same,TGI,SF-539 CNS,26.1 µM
same,TGI,HOP-92 NSCLC,89.8 µM
same,TGI,HL-60(TB) leukemia,43.4 µM
same,TGI,SK-MEL-2 melanoma,> 100 µM
same,TGI,ACHN renal,> 100 µM
same,TGI,SW-620 colon,61.4 µM
same,TGI,SNB-19 CNS,> 100 µM
same,TGI,HS 578T breast,> 100 µM
same,TGI,BT-549 breast,87 µM
same,TGI,NCI-H23 lung,> 100 µM
same,TGI,RXF 393 renal,> 100 µM
same,TGI,786-0 renal,> 100 µM
same,TGI,TK-10 renal,> 100 µM
same,TGI,RPMI-8226 leukemia,65.4 µM
same,TGI,K-562 leukemia,31.9 µM
same,TGI,SK-MEL-5 melanoma,> 100 µM
same,TGI,HCT-116 colon,56.4 µM
same,TGI,MALME-3M melanoma,65.9 µM
same,TGI,OVCAR-5 ovarian,> 100 µM
same,TGI,UO-31 renal,> 100 µM
same,TGI,HT29 colon,30.8 µM
same,TGI,OVCAR-3 ovarian,> 100 µM
same,TGI,CCRF-CEM leukemia,36.5 µM
same,TGI,MDA-MB-435,> 100 µM
same,TGI,SNB-75 CNS,87.6 µM
same,TGI,SN12C renal,> 100 µM
same,TGI,T-47D breast,> 100 µM
same,TGI,UACC-257 melanoma,> 100 µM
same,TGI,SR leukemia,> 100 µM
same,TGI,HOP-62 NSCLC,> 100 µM
same,TGI,A549 NSCLC,> 100 µM
same,TGI,M14 melanoma,62.2 µM
same,TGI,NCI/ADR-RES ovarian,> 100 µM
same,TGI,MDA-MB-231 breast,74.2 µM
same,TGI,U251 CNS,> 100 µM
same,TGI,A498 renal,> 100 µM
same,TGI,OVCAR-8 ovarian,> 100 µM
same,TGI,MCF7 breast,56.6 µM
